We go through 18 compounds from patent US7820630B2, “Substituted indole-O-glucosides” (Janssen Pharmaceutica NV, priority 2003, dated 2010).

One experiment concerns the target T1, human SGLT1 (Homo sapiens, UniProt P13866).
T1 construct: expressed in transfected cells
T1 sequence (P13866 1-664): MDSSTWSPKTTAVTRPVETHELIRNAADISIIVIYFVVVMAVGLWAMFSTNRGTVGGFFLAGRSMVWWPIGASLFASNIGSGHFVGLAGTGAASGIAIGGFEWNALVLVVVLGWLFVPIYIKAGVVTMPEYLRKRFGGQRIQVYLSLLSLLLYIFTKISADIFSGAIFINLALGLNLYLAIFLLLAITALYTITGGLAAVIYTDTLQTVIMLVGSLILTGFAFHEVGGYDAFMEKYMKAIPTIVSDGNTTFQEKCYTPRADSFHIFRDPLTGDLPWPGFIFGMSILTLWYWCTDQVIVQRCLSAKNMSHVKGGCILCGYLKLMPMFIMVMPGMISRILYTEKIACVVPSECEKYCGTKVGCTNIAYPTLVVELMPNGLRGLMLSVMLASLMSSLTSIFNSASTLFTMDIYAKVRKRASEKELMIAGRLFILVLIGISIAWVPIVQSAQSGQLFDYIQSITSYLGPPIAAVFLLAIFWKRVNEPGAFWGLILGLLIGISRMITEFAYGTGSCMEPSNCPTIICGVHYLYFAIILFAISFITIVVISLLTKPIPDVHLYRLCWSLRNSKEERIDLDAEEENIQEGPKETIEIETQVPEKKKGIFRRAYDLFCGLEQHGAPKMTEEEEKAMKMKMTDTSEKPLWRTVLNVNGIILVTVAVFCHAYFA
Put plainly: Cell-based assay for sodium-dependent glucose transport (14C-AMG uptake), CHOK-SGLT1. The following applies: CHO-K1 cells stably expressing human SGLT1; for inhibition at 10 µM: 10 μM compound, read-out: CHOK-SGLT1 % Inh. @ 10 μM; for IC50: Na-dependent 14C-AMG uptake. Here is the method: (§1) Cloning of the human SGLT1 and human SGLT2 cDNAs and construction of the mammalian expression vector: The human SGLT1 cDNA (Genbank M24847) was cloned from human small intestine. Human SGLT2 cDNA (Genbank M95549) was cloned from human kidney. Both full cDNAs were subcloned into pcDNA and sequenced to verify the integrity of the construct.
(§2) Generation of CHO-K1 cells stably expressing human SGLT1 or human SGLT2: Transfection of CHO-K1 cells was performed using DMRIE-C reagent (Life Technologies, Gaithersburg, Md.). Transfectants were then selected in the presence of the antibiotic G418 (Gibco-BRL, Grand Island, N.Y.) at 400 μg/ml. Individual clones were then characterized using the functional assay described below.
(§3) Cell-based assay for sodium-dependent glucose transport: Cell lines stably expressing human SGLT1 or SGLT2 were then used for functional analysis of Na+-dependent glucose uptake. Briefly, cells were plated at a density of 65,000 cells per well in a 96-well plate and allowed to grow for 48 hours. Cells were subsequently washed one time with Assay Buffer (50 mM HEPES pH […], 5 mM KCl, 1 mM MgCl2, 1 mM CaCl2 and 137 mM NaCl) and treated with compound in the absence or presence of NaCl for 15 minutes. Cells were then labeled with ^14C-α-methylglucopyranoside (AMG, Sigma, St. Louis, Mo.), a non-metabolizable glucose analog specific for sodium-dependent glucose transporters as previously described (Peng, H. and Lever J. E. Post-transcriptional regulation of Na^+/glucose cotransporter (SGLT1) gene expression in LLC-PK1 cells. J Biol Chem 1995; 270:20536-20542.). After 2 hours the labeled cells were washed three times with ice-cold PBS. After aspiration, cells were solubilized using Microscint 20 (Packard, Meriden, Conn.) and Na-dependent ^14C-AMG uptake was quantified by measuring radioactivity. Plates were counted in a TopCount (Packard, Meriden, Conn.). Results are reported as the % inhibition or IC50 value from a representative experiment. Variability for the functional assay was typically within 20%.

Another experiment has as its target T2, human SGLT2 (Homo sapiens, UniProt P31639).
T2 construct: expressed in transfected cells
T2 sequence (P31639 1-672): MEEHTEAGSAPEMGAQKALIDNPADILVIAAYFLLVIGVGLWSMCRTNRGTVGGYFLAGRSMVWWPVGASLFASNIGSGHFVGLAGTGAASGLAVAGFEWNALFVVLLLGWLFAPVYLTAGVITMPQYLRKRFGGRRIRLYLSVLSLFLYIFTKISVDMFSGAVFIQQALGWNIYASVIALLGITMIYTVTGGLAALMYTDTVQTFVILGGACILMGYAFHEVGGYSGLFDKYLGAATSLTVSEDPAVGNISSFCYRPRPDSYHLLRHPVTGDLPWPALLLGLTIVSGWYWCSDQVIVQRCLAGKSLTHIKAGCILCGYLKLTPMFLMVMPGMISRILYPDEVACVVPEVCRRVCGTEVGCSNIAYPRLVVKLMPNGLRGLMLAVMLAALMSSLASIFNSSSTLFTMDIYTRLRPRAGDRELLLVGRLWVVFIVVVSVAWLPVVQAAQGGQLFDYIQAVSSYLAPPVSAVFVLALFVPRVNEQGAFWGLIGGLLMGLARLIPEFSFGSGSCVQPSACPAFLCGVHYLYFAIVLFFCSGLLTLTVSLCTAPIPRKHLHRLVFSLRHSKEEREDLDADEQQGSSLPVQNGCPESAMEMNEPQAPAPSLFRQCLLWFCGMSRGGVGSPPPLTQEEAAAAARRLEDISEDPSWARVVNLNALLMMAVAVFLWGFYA
Briefly: Cell-based assay for sodium-dependent glucose transport (14C-AMG uptake), CHOK-SGLT2. The following applies: CHO-K1 cells stably expressing human SGLT2; for IC50: Na-dependent 14C-AMG uptake. The method, then:
as §1, §2, §3

For `CCN(CC)C(=O)n1cc(Cc2ccc(OC)cc2)c2c(O[C@@H]3O[C@H](CO)[C@@H](O)[C@H](O)[C@H]3O)cccc21` [Example 21, 2-[1-Diethylcarbamoyl-3-(4-methoxy-benzyl)-1H-indol-4-yloxy]-β-D-glucopyranoside], the inhibition at 10 µM at human SGLT1 stood at 43%. At human SGLT2, this compound registered an IC50 of 1430 nM.
As for `Cc1ccc(Cc2c[nH]c3cccc(O[C@@H]4O[C@H](CO)[C@@H](O)[C@H](O)[C@H]4O)c23)cc1F` [Example 16, 2-[3-(3-Fluoro-4-methyl-benzyl)-1H-indol-4-yloxy]-β-D-glucopyranoside], on human SGLT1 (3 μM compound, read-out: CHOK-SGLT1 % Inh. @ 3 μM), the inhibition at 3 µM amounted to 42%. Moreover, the IC50 against human SGLT2 turned out to be 67 nM.
`OC[C@H]1O[C@@H](Oc2cccc3[nH]cc(Cc4ccc(-c5cccnc5)cc4)c23)[C@H](O)[C@@H](O)[C@@H]1O` [Example 35, 2-[3-(4-Pyridin-3-yl-benzyl)-1H-indol-4-yloxy]-β-D-glucopyranoside]: the IC50 on human SGLT1 was found to be 1120 nM; on human SGLT2 it was 133 nM.
With `COc1ccc(Cc2cn(C)c3cccc(O[C@@H]4O[C@H](CO)[C@@H](O)[C@H](O)[C@H]4O)c23)cc1` [Example 23, 2-[3-(4-Methoxy-benzyl)-1-methyl-1H-indol-4-yloxy]-β-D-glucopyranoside], the inhibition at 10 µM at human SGLT1 was 69%. Further, the IC50 against human SGLT2 worked out at 1220 nM.
As for `Cc1ccsc1Cc1c[nH]c2cccc(O[C@@H]3O[C@H](CO)[C@@H](O)[C@H](O)[C@H]3O)c12` [Example 34], the inhibition at 10 µM on human SGLT1 turned out to be 27%. Also, half-maximal inhibition at human SGLT2 (IC50) required 5040 nM.
On to `COc1ccc(Cc2c[nH]c3cccc(O[C@@H]4O[C@H](CO)[C@@H](O)[C@H](O)[C@H]4O)c23)cc1` [Example 22, 2-[3-(4-Methoxy-benzyl)-1H-indol-4-yloxy]-β-D-glucopyranoside], for which the values for the IC50 at human SGLT1 and against human SGLT2 were 1120 nM and 118 nM, respectively.
Take `CCOc1ccc(CCc2c[nH]c3cccc(O[C@@H]4O[C@H](CO)[C@@H](O)[C@H](O)[C@H]4O)c23)cc1` [Example 8, 2-{3-[2-(4-Ethoxy-phenyl)-ethyl]-1H-indol-4-yloxy}-β-D-glucopyranoside]: the half-maximal inhibitory concentration (IC50) turned out to be 1340 nM against human SGLT1 and 183 nM at human SGLT2.
Regarding `Cc1ccc(Cc2c[nH]c3cccc(O[C@@H]4O[C@H](CO)[C@@H](O)[C@H](O)[C@H]4O)c23)cc1` [Example 15, 2-[3-(4-Methyl-benzyl)-1H-indol-4-yloxy]-β-D-glucopyranoside], the IC50 came out at 3880 nM on human SGLT1 and 53 nM at human SGLT2.
On to `CC(C)c1ccc(Cc2c[nH]c3cccc(O[C@@H]4O[C@H](CO)[C@@H](O)[C@H](O)[C@H]4O)c23)cc1` [Example 18, 2-[3-(4-isopropyl-benzyl)-1H-indol-4-yloxy]-β-D-glucopyranoside], for which, on human SGLT1, the inhibition at 10 µM was determined as 49%. At human SGLT2, this compound registered an IC50 of 88 nM.
For `CCCCCC(=O)OC[C@H]1O[C@@H](Oc2cccc3[nH]cc(Cc4ccc(CC)cc4)c23)[C@H](O)[C@@H](O)[C@@H]1O` [Example 14, 2-[3-(4-Ethyl-benzyl)-1H-indol-4-yloxy]-6-O-hexanoyl-β-D-glucopyranoside], at human SGLT1, the inhibition at 10 µM amounted to 71%. This compound gave a half-inhibitory concentration (IC50) on human SGLT2 of 206 nM.
For `COc1ccc(Cc2c[nH]c3cccc(O[C@@H]4O[C@H](CO)[C@@H](O)[C@H](O)[C@H]4O)c23)cc1F` [Example 24, 2-[3-(3-Fluoro-4-methoxy-benzyl)-1H-indol-4-yloxy]-D-glucopyranoside] the same measures were 79% and 202 nM.
For `OC[C@H]1O[C@@H](Oc2cccc3[nH]cc(Cc4ccc(-c5ccccc5)c(F)c4)c23)[C@H](O)[C@@H](O)[C@@H]1O` [Example 20, 2-[3-(2-Fluoro-biphenyl-4-ylmethyl)-1H-indol-4-yloxy]-β-D-glucopyranoside] the same measures were 35% and 114 nM.
With `CCc1ccc(Cc2c[nH]c3cccc(O[C@@H]4O[C@H](CO)[C@@H](O)[C@H](O)[C@H]4O)c23)cc1` [Example 11, 2-[3-(4-Ethyl-benzyl)-1H-indol-4-yloxy]-β-D-glucopyranoside], the IC50 at human SGLT1 was found to be 1810 nM; on human SGLT2, 24 nM.
On to `CCc1ccc(Cc2c[nH]c3cc(C)cc(O[C@@H]4O[C@H](CO)[C@@H](O)[C@H](O)[C@H]4O)c23)cc1` [Example 32, 2-[3-(4-Ethyl-benzyl)-6-methyl-1H-indol-4-yloxy]-β-D-glucopyranoside], for which the inhibition at 10 µM on human SGLT1 is 30%. In addition, the IC50 against human SGLT2 amounted to 117 nM.
In the case of `OC[C@H]1O[C@@H](Oc2cccc3[nH]cc(CCc4ccc5c(c4)CCO5)c23)[C@H](O)[C@@H](O)[C@@H]1O` [Example 1, 2-{3-[2-(2,3-Dihydro-benzofuran-5-yl)-ethyl]-1H-indol-4-yloxy} β-D-glucopyranoside], the 50% inhibitory concentration (IC50) was 148 nM against human SGLT1 and 20 nM on human SGLT2.
Take `CCc1ccc(CCc2c[nH]c3cccc(O[C@@H]4O[C@H](CO)[C@@H](O)[C@H](O)[C@H]4O)c23)cc1` [Example 9, 2-{3-[2-(4-Ethyl-phenyl)-ethyl]-1H-indol-4-yloxy}-β-D-glucopyranoside]: the inhibition at 10 µM on human SGLT1 is 46%. Further, on human SGLT2 (1 μM compound, read-out: CHOK-SGLT2 % Inh. @ 1 μM), the inhibition at 1 µM amounted to 50%.
In the case of `OC[C@H]1O[C@@H](Oc2cccc3[nH]cc(Cc4ccc(-c5ccsc5)cc4)c23)[C@H](O)[C@@H](O)[C@@H]1O` [Example 37, 2-[3-(4-Thiophen-3-yl-benzyl)-1H-indol-4-yloxy]-β-D-glucopyranoside], the half-inhibitory concentration (IC50) at human SGLT1 was 1890 nM; against human SGLT2 it was 34 nM.
For `COc1ccc(CCc2c[nH]c3cccc(O[C@@H]4O[C@H](CO)[C@@H](O)[C@H](O)[C@H]4O)c23)cc1` [Example 7, 2-{3-[2-(4-Methoxy-phenyl)-ethyl]-1H-indol-4-yloxy}-β-D-glucopyranoside] the same measures were 560 nM and 142 nM.

As usually defined, the IC50 is the concentration at which inhibition is half-maximal.
